From publication PMC4508061, “Selectivity Profiling and Biological Activity of Novel β-Carbolines as Potent and Selective DYRK1 Kinase Inhibitors” (PLoS ONE, 2015)

Key:
Assay in all cases: ProQinase radiometric kinase panel
Conditions in all cases: mean of 2 exp.
HRI = HRI (Homo sapiens, UniProt Q9BQI3)
JAK2 = JAK2 (Homo sapiens, UniProt O60674)
ROCK1 = ROCK1 (Homo sapiens, UniProt Q13464)
NLK = NLK (Homo sapiens, UniProt Q9UBE8)
SYK = SYK (Homo sapiens, UniProt P43405)
MST3 = MST3 (Homo sapiens, UniProt Q9Y6E0)
ACV-R1B = ACV-R1B (Homo sapiens, UniProt P36896)
HIPK3 = HIPK3 (Homo sapiens, UniProt Q9H422)
HIPK4 = target: T1, HIPK4 (Homo sapiens, UniProt Q8NE63)
T1 sequence (Q8NE63 1-616): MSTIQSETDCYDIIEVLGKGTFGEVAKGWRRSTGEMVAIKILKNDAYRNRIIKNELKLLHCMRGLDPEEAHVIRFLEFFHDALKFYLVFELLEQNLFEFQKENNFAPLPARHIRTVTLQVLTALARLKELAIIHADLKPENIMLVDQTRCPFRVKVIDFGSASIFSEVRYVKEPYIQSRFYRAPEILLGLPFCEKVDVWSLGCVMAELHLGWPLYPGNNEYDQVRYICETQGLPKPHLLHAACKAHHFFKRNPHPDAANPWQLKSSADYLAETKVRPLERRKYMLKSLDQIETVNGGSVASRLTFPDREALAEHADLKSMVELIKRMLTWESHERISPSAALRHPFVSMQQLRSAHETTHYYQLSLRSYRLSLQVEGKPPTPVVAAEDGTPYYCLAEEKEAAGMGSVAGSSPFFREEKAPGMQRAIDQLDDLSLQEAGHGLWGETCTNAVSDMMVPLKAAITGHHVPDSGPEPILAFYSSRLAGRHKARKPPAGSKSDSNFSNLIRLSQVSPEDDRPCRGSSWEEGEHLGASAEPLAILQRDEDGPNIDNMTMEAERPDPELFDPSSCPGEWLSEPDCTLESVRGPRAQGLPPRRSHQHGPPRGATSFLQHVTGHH

PYK2 = PYK2 (Homo sapiens, UniProt Q14289)
GRK4 = GRK4 (Homo sapiens, UniProt P32298)
COT = COT (Homo sapiens, UniProt P41279)
TIE2 = TIE2 (Homo sapiens, UniProt Q02763)
SNF1LK2 = SNF1LK2 (Homo sapiens, UniProt Q9H0K1)
MST4 = MST4 (Homo sapiens, UniProt Q9P289)
p38-gamma = p38-gamma (Homo sapiens, UniProt P53778)
CK1-gamma3 = CK1-gamma3 (Homo sapiens, UniProt Q9Y6M4)
MEK1 = MEK1 (Homo sapiens, UniProt Q02750)
TAOK3 = TAOK3 (Homo sapiens, UniProt Q9H2K8)
EPHA8 = EPHA8 (Homo sapiens, UniProt P29322)
SAK = SAK (Homo sapiens, UniProt O00444)
EPHA1 = EPHA1 (Homo sapiens, UniProt P21709)
IKK-alpha = IKK-alpha (Homo sapiens, UniProt O15111)
RPS6KA1 = RPS6KA1 (Homo sapiens, UniProt Q15418)
ERK2 = ERK2 (Homo sapiens, UniProt P28482)
BRK = BRK (Homo sapiens, UniProt Q13882)
CK1-gamma2 = CK1-gamma2 (Homo sapiens, UniProt P78368)
TBK1 = TBK1 (Homo sapiens, UniProt Q9UHD2)
p38-beta = p38-beta (Homo sapiens, UniProt Q15759)
KIT = KIT (Homo sapiens, UniProt P10721)
Protocol: Gini coefficients were calculated and the Lorenz curve (Fig 3B) was plotted by applying the Microsoft Excel spreadsheet provided by Graczyk [44].
radiometric protein kinase assays.

CDK9/CycK = CDK9/CycK (Homo sapiens, UniProt P50750)
FLT3 = FLT3 (Homo sapiens, UniProt P36888)
Chain of FLT3 (P36888 27-993): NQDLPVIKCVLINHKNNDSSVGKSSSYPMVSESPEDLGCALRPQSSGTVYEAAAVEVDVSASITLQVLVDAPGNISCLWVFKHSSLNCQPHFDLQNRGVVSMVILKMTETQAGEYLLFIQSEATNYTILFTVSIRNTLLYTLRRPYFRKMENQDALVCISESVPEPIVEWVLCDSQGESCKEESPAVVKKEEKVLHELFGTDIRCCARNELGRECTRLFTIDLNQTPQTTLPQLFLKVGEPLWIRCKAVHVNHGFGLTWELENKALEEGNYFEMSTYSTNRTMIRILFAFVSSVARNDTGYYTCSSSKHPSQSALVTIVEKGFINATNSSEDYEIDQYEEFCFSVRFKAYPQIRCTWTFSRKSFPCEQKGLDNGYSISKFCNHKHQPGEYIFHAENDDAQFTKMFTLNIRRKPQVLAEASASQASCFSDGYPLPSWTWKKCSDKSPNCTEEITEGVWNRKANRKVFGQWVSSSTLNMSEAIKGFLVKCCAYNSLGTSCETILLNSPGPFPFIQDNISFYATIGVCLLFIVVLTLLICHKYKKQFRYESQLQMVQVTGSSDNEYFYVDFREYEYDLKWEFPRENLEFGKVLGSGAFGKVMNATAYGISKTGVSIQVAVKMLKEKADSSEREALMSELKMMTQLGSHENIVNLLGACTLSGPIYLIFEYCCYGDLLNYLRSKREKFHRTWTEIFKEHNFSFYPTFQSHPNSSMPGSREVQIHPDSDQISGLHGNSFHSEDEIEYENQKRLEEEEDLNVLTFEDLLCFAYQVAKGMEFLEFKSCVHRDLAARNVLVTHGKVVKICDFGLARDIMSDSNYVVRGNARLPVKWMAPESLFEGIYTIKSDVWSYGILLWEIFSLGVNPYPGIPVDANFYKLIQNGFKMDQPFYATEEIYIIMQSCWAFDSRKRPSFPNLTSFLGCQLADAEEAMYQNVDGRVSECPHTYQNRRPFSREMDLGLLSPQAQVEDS

Chain of ACV-R1B (P36896 24-505): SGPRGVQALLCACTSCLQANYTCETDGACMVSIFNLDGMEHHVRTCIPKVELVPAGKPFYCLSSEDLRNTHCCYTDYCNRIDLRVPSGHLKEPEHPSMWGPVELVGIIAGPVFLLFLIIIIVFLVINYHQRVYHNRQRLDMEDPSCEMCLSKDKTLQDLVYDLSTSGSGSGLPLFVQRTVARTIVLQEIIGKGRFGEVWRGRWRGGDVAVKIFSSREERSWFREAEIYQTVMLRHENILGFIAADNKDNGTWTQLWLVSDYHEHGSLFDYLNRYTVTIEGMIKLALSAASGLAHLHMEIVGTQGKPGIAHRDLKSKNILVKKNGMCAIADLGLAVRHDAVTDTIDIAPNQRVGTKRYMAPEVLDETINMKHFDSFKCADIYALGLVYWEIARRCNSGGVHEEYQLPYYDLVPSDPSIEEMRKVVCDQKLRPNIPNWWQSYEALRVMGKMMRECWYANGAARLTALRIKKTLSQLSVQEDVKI
Chain of TIE2 (Q02763 23-1124): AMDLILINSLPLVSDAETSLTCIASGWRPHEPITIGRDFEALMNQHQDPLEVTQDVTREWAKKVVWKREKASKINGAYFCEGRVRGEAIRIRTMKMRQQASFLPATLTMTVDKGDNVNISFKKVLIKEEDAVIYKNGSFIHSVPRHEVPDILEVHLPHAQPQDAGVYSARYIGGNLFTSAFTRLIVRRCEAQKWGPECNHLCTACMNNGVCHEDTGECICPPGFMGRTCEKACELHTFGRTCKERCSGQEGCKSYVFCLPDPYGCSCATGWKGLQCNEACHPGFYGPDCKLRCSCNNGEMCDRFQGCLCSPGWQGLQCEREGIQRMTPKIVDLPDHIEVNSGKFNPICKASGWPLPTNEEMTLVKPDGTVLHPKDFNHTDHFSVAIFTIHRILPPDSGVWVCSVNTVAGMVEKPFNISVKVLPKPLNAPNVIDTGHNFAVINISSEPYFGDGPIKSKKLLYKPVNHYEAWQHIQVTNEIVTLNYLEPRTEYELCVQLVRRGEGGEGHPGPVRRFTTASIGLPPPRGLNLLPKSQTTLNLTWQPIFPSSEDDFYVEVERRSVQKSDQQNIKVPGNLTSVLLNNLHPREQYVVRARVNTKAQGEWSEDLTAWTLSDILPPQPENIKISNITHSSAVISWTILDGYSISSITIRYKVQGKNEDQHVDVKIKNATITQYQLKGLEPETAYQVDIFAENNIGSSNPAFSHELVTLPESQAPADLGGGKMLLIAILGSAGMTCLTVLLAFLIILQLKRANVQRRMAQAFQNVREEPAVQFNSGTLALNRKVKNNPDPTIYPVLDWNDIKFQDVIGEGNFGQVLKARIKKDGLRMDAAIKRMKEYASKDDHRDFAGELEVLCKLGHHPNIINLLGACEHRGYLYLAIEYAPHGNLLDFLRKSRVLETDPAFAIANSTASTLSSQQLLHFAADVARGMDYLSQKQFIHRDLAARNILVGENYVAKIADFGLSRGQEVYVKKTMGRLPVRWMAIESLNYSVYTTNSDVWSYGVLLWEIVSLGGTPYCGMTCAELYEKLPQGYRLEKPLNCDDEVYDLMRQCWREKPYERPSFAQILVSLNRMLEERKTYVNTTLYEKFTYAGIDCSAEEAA
Chain of CK1-gamma3 (Q9Y6M4 whole entry): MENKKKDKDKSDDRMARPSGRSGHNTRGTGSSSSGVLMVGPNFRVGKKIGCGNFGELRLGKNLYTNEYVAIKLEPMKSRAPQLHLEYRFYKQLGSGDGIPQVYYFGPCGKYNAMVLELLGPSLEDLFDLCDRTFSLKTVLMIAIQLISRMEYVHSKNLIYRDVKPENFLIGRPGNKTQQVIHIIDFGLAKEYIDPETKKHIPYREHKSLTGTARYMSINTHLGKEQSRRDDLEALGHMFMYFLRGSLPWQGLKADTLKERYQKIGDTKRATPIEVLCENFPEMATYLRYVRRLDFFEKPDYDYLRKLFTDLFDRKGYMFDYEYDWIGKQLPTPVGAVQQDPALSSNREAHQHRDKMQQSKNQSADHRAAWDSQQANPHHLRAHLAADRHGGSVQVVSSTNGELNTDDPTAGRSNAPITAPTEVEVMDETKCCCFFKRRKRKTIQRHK
Chain of NLK (Q9UBE8 whole entry): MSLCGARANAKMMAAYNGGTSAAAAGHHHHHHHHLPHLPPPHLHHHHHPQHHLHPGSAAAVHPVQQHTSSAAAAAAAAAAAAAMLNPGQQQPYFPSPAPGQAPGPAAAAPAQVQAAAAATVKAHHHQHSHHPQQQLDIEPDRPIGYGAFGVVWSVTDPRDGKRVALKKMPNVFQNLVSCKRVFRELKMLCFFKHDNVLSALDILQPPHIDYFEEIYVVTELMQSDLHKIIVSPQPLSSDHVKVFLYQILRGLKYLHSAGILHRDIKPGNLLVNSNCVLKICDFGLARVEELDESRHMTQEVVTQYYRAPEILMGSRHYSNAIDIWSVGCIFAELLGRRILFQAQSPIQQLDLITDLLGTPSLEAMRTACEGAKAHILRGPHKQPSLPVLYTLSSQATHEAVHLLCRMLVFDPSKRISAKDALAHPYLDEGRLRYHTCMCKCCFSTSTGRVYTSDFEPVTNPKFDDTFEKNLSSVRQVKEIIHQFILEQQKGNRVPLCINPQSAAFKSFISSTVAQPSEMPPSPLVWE
Chain of COT (P41279 whole entry): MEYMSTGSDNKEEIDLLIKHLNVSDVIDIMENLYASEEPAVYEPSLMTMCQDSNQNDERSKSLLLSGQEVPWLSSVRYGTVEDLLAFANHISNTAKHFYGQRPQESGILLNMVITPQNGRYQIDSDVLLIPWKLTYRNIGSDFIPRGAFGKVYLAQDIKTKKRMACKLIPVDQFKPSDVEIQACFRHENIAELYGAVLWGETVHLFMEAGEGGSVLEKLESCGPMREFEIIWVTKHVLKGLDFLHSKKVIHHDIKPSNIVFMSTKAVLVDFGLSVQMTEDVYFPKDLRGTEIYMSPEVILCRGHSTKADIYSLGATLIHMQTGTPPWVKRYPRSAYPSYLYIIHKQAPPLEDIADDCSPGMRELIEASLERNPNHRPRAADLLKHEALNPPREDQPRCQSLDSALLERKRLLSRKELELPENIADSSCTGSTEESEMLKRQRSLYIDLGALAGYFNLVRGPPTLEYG
Chain of MST4 (Q9P289 whole entry): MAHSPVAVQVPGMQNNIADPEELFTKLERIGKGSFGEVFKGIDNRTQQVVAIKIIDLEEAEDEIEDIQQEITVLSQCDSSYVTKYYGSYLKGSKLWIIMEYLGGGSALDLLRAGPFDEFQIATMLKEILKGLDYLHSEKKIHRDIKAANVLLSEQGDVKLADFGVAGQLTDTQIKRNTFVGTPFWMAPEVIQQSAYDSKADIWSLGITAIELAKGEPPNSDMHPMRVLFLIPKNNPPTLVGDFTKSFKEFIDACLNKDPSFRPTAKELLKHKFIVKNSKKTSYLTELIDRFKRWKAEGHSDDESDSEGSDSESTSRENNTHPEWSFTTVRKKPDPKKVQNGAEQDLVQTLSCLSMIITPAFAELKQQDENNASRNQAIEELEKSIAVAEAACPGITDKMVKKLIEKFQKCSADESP
Chain of ERK2 (P28482 whole entry): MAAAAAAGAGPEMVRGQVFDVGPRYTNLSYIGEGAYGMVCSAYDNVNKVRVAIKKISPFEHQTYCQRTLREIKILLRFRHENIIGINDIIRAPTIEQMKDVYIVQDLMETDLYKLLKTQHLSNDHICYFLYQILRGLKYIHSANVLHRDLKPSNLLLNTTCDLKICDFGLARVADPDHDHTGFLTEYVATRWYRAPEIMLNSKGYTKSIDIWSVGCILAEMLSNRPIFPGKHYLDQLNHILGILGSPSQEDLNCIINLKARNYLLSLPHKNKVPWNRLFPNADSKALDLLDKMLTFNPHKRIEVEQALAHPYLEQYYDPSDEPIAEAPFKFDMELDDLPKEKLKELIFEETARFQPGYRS

residual activity at 1 µM, Mean (HRI): 101 % of control | residual activity at 1 µM, Mean (JAK2): 99 % of control | residual activity at 1 µM, Mean (ROCK1): 73 % of control | residual activity at 1 µM, Mean (NLK): 92 % of control | residual activity at 1 µM, Mean (SYK): 101 % of control | residual activity at 1 µM, Mean (MST3): 104 % of control | residual activity at 1 µM, Mean (ACV-R1B): 97 % of control | residual activity at 1 µM, Mean (HIPK3): 88 % of control | residual activity at 1 µM, Mean (HIPK4): 88 % of control | residual activity at 1 µM, Mean (PYK2): 110 % of control | residual activity at 1 µM, Mean (GRK4): 49 % of control | residual activity at 1 µM, Mean (COT): 88 % of control | residual activity at 1 µM, Mean (TIE2): 84 % of control | residual activity at 1 µM, Mean (SNF1LK2): 91 % of control | residual activity at 1 µM, Mean (MST4): 92 % of control | residual activity at 1 µM, Mean (p38-gamma): 86 % of control | residual activity at 1 µM, Mean (CK1-gamma3): 93 % of control | residual activity at 1 µM, Mean (MEK1): 72 % of control | residual activity at 1 µM, Mean (TAOK3): 103 % of control | residual activity at 1 µM, Mean (EPHA8): 89 % of control | residual activity at 1 µM, Mean (SAK): 112 % of control | residual activity at 1 µM, Mean (EPHA1): 92 % of control | residual activity at 1 µM, Mean (IKK-alpha): 60 % of control | residual activity at 1 µM, Mean (RPS6KA1): 63 % of control | residual activity at 1 µM, Mean (ERK2): 87 % of control | residual activity at 1 µM, Mean (BRK): 97 % of control | residual activity at 1 µM, Mean (CK1-gamma2): 82 % of control | residual activity at 1 µM, Mean (TBK1): 94 % of control | residual activity at 1 µM, Mean (p38-beta): 105 % of control | residual activity at 1 µM, Mean (KIT): 82 % of control | residual activity at 1 µM, Mean (CDK9/CycK): 52 % of control | residual activity at 1 µM, Mean (FLT3): 70 % of control
SMILES: COc1ccc2c3ccnc(Cl)c3n(CC#N)c2c1 [AnnH75]
